Laboratory results reported in patent US20100323975A1, “THERAPEUTIC AGENT FOR CEREBRAL ISCHEMIC INJURY” (OTSUKA PHARMACEUTICAL FACTORY, INC., priority 2007, published 2010).
Peptide text beside a SMILES is read from it.

Legend:
[1] = L-histidine concentration in blood after intravenous administration (Test Example 2); settings: male, Wistar, rat, in vivo, 15 min
Procedure: (§1) 7- to 9-week-old Wistar male rats were divided into the following 8 administration groups. The number of rats in each group was set at 4. […]
The therapeutic agent for cerebral ischemic injury obtained in Production Example 2 was diluted by a factor of 2, and the thus diluted solution was administered into the caudal vein of each rat at a rate of 60 mL/kg/hr for 10 minutes. […]
(§2) L-histidine was added to water for injection purpose, and acetic acid was further added thereto, so as to dissolve L-histidine in the solution. The obtained solution was adjusted to pH 6.0 with a sodium hydroxide aqueous solution. The obtained injection solution (L-histidine concentration: 10% (W/V)) was administered into the caudal vein of each rat at a rate of 60 mL/kg/hr for 10 minutes.
as §2, with “citric” for “acetic”, “minutes. […]” for “minutes.”
(§3) After administration of the agent, blood was collected from each rat at regular time intervals, and the concentration of L-histidine (monomer) in blood was then measured using a high speed amino acid analyzer L-8800A (manufactured by Hitachi High-Technologies Corporation). […] In addition, the body temperature, blood pressure, and cardiac rate of each test animal were measured during the period from before administration of the agent until after the administration of the agent, and at the same time, the appearance of each test animal was observed, so as to examine the presence or absence of side effects caused by administration of the agent. The L-histidine concentration in blood was measured 15 minutes after the administration of the agent, and the presence or absence of side effects caused by such administration of the agent was examined.

[2] = tested on: model of middle cerebral artery occlusion and subsequent reperfusion (cerebral ischemic injury); assay: Infarction rate and cerebral edema rate in model of middle cerebral artery occlusion and subsequent reperfusion (Test Example 5); format: in vivo, Wistar male rats; settings: Production Example 4 injection (0.64 mol/L), caudal vein 60 mL/kg/hr for 10 minutes, immediately after and 6 hours after reperfusion; 120 min occlusion; 24 hours after reperfusion; FIG. 2
Excerpt: Approximately 7-week-old Wistar male rats were used. The method of Koizumi et al. (Nou-socchu (Cerebral Apoplexy), Vol. 8, pp. 1-8, 1986) was applied to the rats under halothane anesthesia, so as to produce models of middle cerebral artery occlusion and subsequent reperfusion. Specifically, each rat was fixed under natural aspiration conditions under anesthesia with gas (initial anesthesia: performed in room air containing 3% halothane; continuous anesthesia: performed in room air containing 1% halothane), and the neck of the rat was then subjected to median incision. […]
On the day after the administration of the agent (24 hours after cerebral ischemia-reperfusion), a test animal was anesthetized with ether, and the brain was then excised. […] A slice of brain section was placed, with a surface to be measured down, into each well of a 12-well plate, which had been filled with a 2% TTC solution prepared by dissolving 2,3,5-triphenyltetrazolium chloride (TTC) in a phosphate buffered saline. […] Thus, the area of an infarct on the measurement surface of each brain section (the site in which brain tissue was considered to be necrosed) was measured, and the obtained value was then multiplied by the thickness of the brain section, so as to obtain the volume of an infarct in each brain section. […]

[3] = Solubility in water at 25° C.; format: physicochemical
Wistar male rats = assay: Identification of side effects after intravenous administration (Test Example 2); settings: rat, in vivo
Procedure: as §1
L-histidine hydrochloride was dissolved in water for injection purpose, and the obtained solution was then adjusted to pH 6.0 with a sodium hydroxide aqueous solution. The obtained injection solution (L-histidine concentration: 10% (W/V)) was administered into the caudal vein of each rat at a rate of 60 mL/kg/hr for 10 minutes.
as §2
as §2, with “citric” for “acetic”
β-alanyl-L-histidine was added to water for injection purpose, and the obtained solution was then adjusted to pH 7 with hydrochloric acid. The obtained injection solution (L-histidine concentration: 10% (W/V)) was administered into the caudal vein of each rat at a rate of 60 mL/kg/hr for 10 minutes. […]
as §3

## NCC(=O)N[C@@H](Cc1c[nH]cn1)C(=O)O [glycyl-L-histidine] (H-Gly-His-OH)
[1]
  L-histidine concentration in blood (mean value): 6.2 mM
[2]
  Cerebral edema rate compared with control group: remarkably suppressed
  Infarction rate compared with control group: remarkably suppressed
[3]
  solubility: ≥ 3500 mM
Wistar male rats
  Side effects: None
